Values quoted from earlier work as cited in patent US9006270B2, “Polymorphs of (S)-pyrrolidine-1,2-dicarboxylic acid 2-amide 1-({4-methyl-5-[2-(2,2,2-trifluoro-1,1-dimethyl-ethyl)-pyridin-4-yl]-thiazol-2-yl}-amide” (Novartis AG, priority 2011, dated 2015).

System: phosphatidylinositol 3-kinase (PI3K)
Conditions: described in WO 2010/029082

activity against the phosphatidylinositol 3-kinase (PI3K): demonstrated activity
Compound: Cc1nc(NC(=O)N2CCC[C@H]2C(N)=O)sc1-c1ccnc(C(C)(C)C(F)(F)F)c1 [Compound I, (S)-pyrrolidine-1,2-dicarboxylic acid 2-amide 1-(4-methyl-5-[2-(2,2,2-trifluoro-1,1-dimethyl-ethyl)-pyridin-4-yl]-thiazol-2-yl)-amide]
